Patent US20170173114A1, “METHODS AND COMPOSITIONS FOR INDUCTION OF UCP1 EXPRESSION” (Joslin Diabetes Center, Inc., priority 2014, published 2017)

Experiments:
[1] = tested on: UCP1; assay: UCP1 mRNA expression (Q-RT-PCR) in WT-1 brown preadipocytes; assay type: cell-based, murine; details: WT-1, 24 hours; vs vehicle
Experimental: (§1) Total RNA was isolated with QIAzol lysis reagent (Qiagen, Valencia, Calif.) and purified by RNeasy Mini columns (Qiagen) following the manufacture's instructions. cDNA was prepared from total RNA using the Advantage RT-PCR kit (BD Biosciences, Palo Alto, Calif.) according to manufacturer's instructions. Diluted cDNA was used in a PCR reaction with SYBR Green Master Mix (Applied Biosystems, Foster City, Calif.) and primers specifically designed for detection of the gene of interest. PCR reactions were run in duplicate for each sample and quantitated in the ABI Sequence Detection System (Applied Biosystems). Data were expressed as arbitrary units after normalization to levels of expression of internal controls for each sample. Sequences of primers for specific genes are each obtained from the published literature or designed using publically available gene sequence databases. Unless otherwise indicated, gene expression data described in the examples below was obtained using QPCR.
The effect of FGF6 on differentiation of WT-1 murine brown preadipocytes was also examined. WT-1 cells can be induced to undergo brown adipocyte differentiation, characterized by lipid accumulation and expression of adipogenic and brown fat markers, as described above (Klein et al. (1999) J Biol Chem 274:34795; Tseng et al. (2005) Nat Cell Biol 7:601). WT-1 cells were treated with FGF6 in growth media (DMEM+10% FBS), a vehicle control (“control” or “C” referred to in FIGS. 3A-D), or induction media (“induction” or “I” referred to in FIGS. 3A-D) as described above for seven days. Following the treatment, cells were examined for the color of the culture media in combination with oil Red O staining, expression of adipogenic markers, expression of brown fat markers, immunofluorescent staining of cells with UCP1 and DPAI, and Western blot analysis to determine the presence of UCP1 and β-tubulin. The results are described in FIGS. 3A to 3D.
UCP1 mRNA expression in brown adipocyte cells was determined at FGF6 concentrations ranging from 0 to 300 ng/ml in the absence of induction cocktail.
In order to determine the length of time necessary to induce UCP1 expression upon exposure to of cells to FGF6, an experiment was performed whereby FGF6 was administered to brown preadipocytes at a concentration of 200 ng/ml and UCP1 expression was determined. FGF21 and a control were also used in the time course experiment. FGF21, a member of the endocrine FGF ligands that has been implicated in the browning of white fat (Fisher F. M. et al., Genes Dev. 26:271-281, 2012). […] FGF6 could acutely induce a significant increase of UCP1 expression as early as 4 hours after a 200 ng/ml dose, as described in FIG. 4B. At 24 hours, the fold-induction of UCP1 mRNA by FGF6 reached 700-fold higher than the untreated cells, as described in FIG. 4B.
To assess FGF6's role in the regulation of mitochondrial activity, FGF6 was stably expressed in WT-1 brown preadipocytes and 3T3-F442A white preadipocytes. Stable cells were generated by viral infection followed by drug selection.
FGF2, FGF6 and FGF9 were used at a dosage of 50 ng/mL, 100 ng/mL, 200 ng/mL or 300 ng/mL. FGF21 was used at the dosage of 50 ng/ml and 500 ng/mL. The concentration of BMP7 was 3.3 nM. RNA was isolated and UCP1 and PPARγ expression levels were evaluated by quantitative reverse transcription polymerase chain reaction (Q-RT-PCR) analysis after 24 hours (i.e., 1 day) (FIG. 14A), 2 days (FIG. 14B), 5 days (FIG. 14C) and 7 days (FIG. 14D) of treatment. All experiments were performed triplicate and the data are presented as mean+/−SEM.
FGF2, FGF6 and FGF9 were used at a dosage of 200 ng/mL. FGF21 was used at a dosage of 500 ng/mL. The concentration of BMP7 was 3.3 nM. mRNA was isolated and UCP1 and PPARγ expression levels were evaluated by quantitative reverse transcription polymerase chain reaction (Q-RT-PCR) analysis after 24 hours (i.e., 1 day), 2 days, 5 days and 7 days of treatment (FIG. 15). […]

[2] = tested on: PTGS2 (COX2); assay: PTGS2 mRNA / COX2 protein expression in WT-1 brown preadipocytes; assay type: cell-based, murine; details: WT-1, 24 hours; vs vehicle
Experimental: as §1
Cells were harvested in lysis buffer (50 mM HEPES, 137 mM NaCl, 1 mM MgCl2, 1 mM CaCl2, 10 mM Na2P2O7, 10 mM NaF, 2 mM EDTA, 10% glycerol, 1% Igepal CA-630, 2 mM vanadate, 10 μg/ml of leupeptin, 10 μg/ml of aprotinin, 2 mM phenylmethylsulfonyl fluoride; pH 7.4). After lysis, lysates were clarified by centrifugation at 12,000×g for 20 min at 4° C., the amount of protein in the supernatants was determined by the Bradford Protein Assay (Bio-Rad Laboratories, Hercules, Calif.). Proteins were directly solubilized in Laemmli sample buffer. Equal amounts of lysates were separated by sodium dodecyl sulfate-polyacrylamide gel electrophoresis and transferred to Immobolin-P membranes. […] Specifically bound primary antibodies were detected with peroxidase-coupled secondary antibody and enhanced chemiluminescence (ECL, Amersham Biosciences, Piscataway, N.J.).
To determine if FGF4, FGF5, FGF6, FGF10, FGF16, FGF17, FGF18 or FGF20 induced either UCP1 mRNA or PTGS2 mRNA expression, murine brown preadipocyte WT-1 cells (Tseng et al., Nat. Cell. Biol. (2005) 7(6):601-611) were grown in growth media (DMEM-high glucose+10% FBS) supplemented with FGF4, FGF5, FGF6, FGF10, FGF16, FGF17, FGF18, FGF20 or buffer (control) in combination with insulin (20 nM) and triidothyronine (T3, 1 nM) for three days. All FGFs were used at a dosage of 200 ng/mL. mRNA was isolated and UCP1 and PTGS2 gene expression levels were evaluated by quantitative reverse transcription polymerase chain reaction (Q-RT-PCR) analysis. […]
To test the role of specific prostaglandins (PGs) in activating UCP1 expression, WT-1 brown adipocytes were pretreated with PGE2, PGI2 and FGF6 for 24 hours. mRNA expression levels of UCP1, PTGS2, LDHA, PDK1 and PKM2 were then measured.

SMILES | UCP1 mRNA expression [1] | PTGS2 mRNA expression [2]
CCCCC[C@H](O)/C=C/[C@H]1[C@H](O)CC(=O)[C@@H]1C/C=C\CCCC(=O)O [PGE2, reference compound] | significantly induced | significantly induced
CCCCC[C@H](O)/C=C/[C@@H]1[C@H]2C/C(=C/CCCC(=O)O)O[C@H]2C[C@H]1O [PGI2, reference compound] | significantly induced | significantly induced
